The values that follow come from ChEMBL document CHEMBL2074546, “Inhibition of P-glycoprotein by flavonoid derivatives in adriamycin-resistant human myelogenous leukemia (K562/ADM) cells” (Cancer Lett, 2002).

The series deals with ATP-dependent translocase ABCB1 (Homo sapiens, UniProt P08183). In words: TP_TRANSPORTER: increase in Vincristine intracellular accumulation (0.025 uM) in K562/ADM cells. Type of series: functional, cell-based. The conditions noted are these: k562/adr.
Chain of ATP-dependent translocase ABCB1 (P08183 whole entry): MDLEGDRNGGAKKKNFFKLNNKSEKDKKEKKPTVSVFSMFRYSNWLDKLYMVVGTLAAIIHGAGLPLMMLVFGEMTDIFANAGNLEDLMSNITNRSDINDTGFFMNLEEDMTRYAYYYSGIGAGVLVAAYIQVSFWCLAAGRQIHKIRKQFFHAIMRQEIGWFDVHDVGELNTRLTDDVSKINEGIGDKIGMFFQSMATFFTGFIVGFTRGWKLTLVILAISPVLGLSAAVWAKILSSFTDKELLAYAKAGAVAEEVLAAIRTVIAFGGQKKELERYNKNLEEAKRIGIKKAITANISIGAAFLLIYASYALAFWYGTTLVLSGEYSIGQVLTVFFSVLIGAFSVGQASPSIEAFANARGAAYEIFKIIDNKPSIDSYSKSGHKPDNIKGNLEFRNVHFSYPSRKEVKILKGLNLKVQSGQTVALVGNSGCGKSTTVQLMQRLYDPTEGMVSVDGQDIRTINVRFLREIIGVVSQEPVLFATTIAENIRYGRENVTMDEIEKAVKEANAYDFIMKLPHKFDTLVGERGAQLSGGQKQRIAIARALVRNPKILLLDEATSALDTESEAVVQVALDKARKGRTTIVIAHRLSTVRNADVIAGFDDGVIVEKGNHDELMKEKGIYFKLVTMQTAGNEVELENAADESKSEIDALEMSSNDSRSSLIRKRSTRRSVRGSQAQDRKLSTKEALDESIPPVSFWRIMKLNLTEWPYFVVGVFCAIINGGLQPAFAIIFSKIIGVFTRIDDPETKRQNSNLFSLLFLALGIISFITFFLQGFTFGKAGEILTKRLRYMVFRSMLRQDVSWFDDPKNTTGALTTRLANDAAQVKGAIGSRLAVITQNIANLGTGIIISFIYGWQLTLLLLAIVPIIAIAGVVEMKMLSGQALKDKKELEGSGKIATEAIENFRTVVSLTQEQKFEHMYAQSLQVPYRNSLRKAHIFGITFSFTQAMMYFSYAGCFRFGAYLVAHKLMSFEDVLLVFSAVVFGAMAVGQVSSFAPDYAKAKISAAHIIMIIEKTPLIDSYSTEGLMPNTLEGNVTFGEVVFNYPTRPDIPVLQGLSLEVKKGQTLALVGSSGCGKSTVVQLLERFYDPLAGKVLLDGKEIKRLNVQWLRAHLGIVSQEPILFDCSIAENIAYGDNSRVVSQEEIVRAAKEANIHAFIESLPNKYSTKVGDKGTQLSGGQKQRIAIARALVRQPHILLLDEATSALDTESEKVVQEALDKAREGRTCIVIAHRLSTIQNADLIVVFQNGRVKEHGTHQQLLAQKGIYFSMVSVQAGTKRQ
For the compound `C=CCOc1ccc(-c2oc3cc(OCC=C)cc(O)c3c(=O)c2OCC=C)c(OCC=C)c1` [MORIN PENTAALLYL ETHER], the Activity entry was “inhibitor [(at a rough estimate) 500 % of control]”. Consider `CCOc1ccc(-c2oc3cc(OCC)cc(O)c3c(=O)c2OCC)c(OCC)c1` [MORIN PENTAETHYL ETHER], for which the Activity result was “inhibitor [(at a rough estimate) 1430 % of control]”. Regarding `COc1ccc(-c2oc3cc(OC)cc(O)c3c(=O)c2OC)c(OC)c1` [MORIN PENTAMETHYL ETHER], the Activity result is “inhibitor [(at a rough estimate) 470 % of control]”. The same measure for `CCCOc1ccc(-c2oc3cc(OCCC)cc(O)c3c(=O)c2OCCC)c(OCCC)c1` [MORIN PENTAPROPYL ETHER]: “inhibitor [(at a rough estimate) 390 % of control]”.
